Test [1] concerns primary human fibroblasts derived from IPF patients (LL29 cells). As to the kind of experiment: Inhibition of the fibrotic process in TGF-β1 treated IPF patient fibroblasts (αSMA staining). As to conditions: Fibroblast, 96 h, LL29 cells treated with TGF-β1 (20 ng/mL), 4 days, read-out: Inhibition of fibrosis EC50. Format: cell-based. An excerpt:
The above synthesized compounds were screened using primary human fibroblasts (derived from IPF patients) treated with TGF-β1 to determine their ability to inhibit the fibrotic process.
Primary human fibroblasts derived from IPF patients (LL29 cells) [^1Xiaoqiu Liu, et. al., “Fibrotic Lung Fibroblasts Show Blunted Inhibition by cAMP Due to Deficient cAMP Response Element-Binding Protein Phosphorylation”, Journal of Pharmacology and Experimental Therapeutics (2005), 315(2), 678-687; ^2Watts, K. L., et. al., “RhoA signaling modulates cyclin D1 expression in human lung fibroblasts; implications for idiopathic pulmonary fibrosis”, Respiratory Research (2006), 7(1), 88] were obtained from American Type Culture Collection (ATCC) and expanded in F12 medium supplemented with 15% Fetal Bovine Serum and Penicillin/Streptomycin.
Each compound was dissolved in DMSO as a 10 mM stock and used to prepare compound source plates. Serial dilution (1:2, 11-point dose-response curves from 10 μM to 1.87 nM) and compound transfer was performed using the ECHO 550 (Labcyte, Sunnyvale, Calif.) into 384-well clear bottom assay plates (Greiner Bio-One) with appropriate DMSO backfill for a final DMSO concentration of 0.1%. LL29 cells were plated at 1,500 cells/well in 80 μl/well F12 medium supplemented with 1% Fetal Bovine Serum. One hour after addition of the cells, TGF-β1 (Peprotech; 20 ng/mL) was added to the plates to induce fibrosis (ref. 1 and 2 above). Wells treated with TGF-β1 and containing DMSO were used as controls. Cells were incubated at 37° C. and 5% CO2 for 4 days. Following incubation for 4 days, SYTOX green nucleic acid stain (Life Technologies [Thermo Fisher Scientific]) was added to the wells at a final concentration of 1 uM and incubated at room temperature for 30 min. Cells were then fixed using 4% formaldehyde (Electron Microscopy Sciences), washed 3 times with PBS followed by blocking and permeabilization using 3% Bovine Serum Albumin (BSA; Sigma) and 0.3% Triton X-100 (Sigma) in PBS. Cells were then stained with antibody specific to α-smooth muscle actin (αSMA; Abcam) (ref. 1 and 2 above) in 3% Bovine Serum Albumin (BSA; Sigma) and 0.3% Triton X-100 (Sigma) in PBS, and incubated overnight at 4° C. Cells were then washed 3 times with PBS, followed by incubation with Alexa Flor-647 conjugated secondary antibody (Life Technologies [Thermo Fisher Scientific]) and DAPI at room temperature for 1 hour. Cells were then washed 3 times with PBS and plates were sealed for imaging. αSMA staining was imaged by excitation at 630 nm and emission at 665 nm and quantified using the Compartmental Analysis program on the CellInsight CX5 (Thermo Scientific). Dead or apoptotic cells were excluded from analysis based on positive SYTOX green staining. % of total cells positive for αSMA were counted in each well and normalized to the average of 11 wells treated with TGF-β1 on the same plate using Dotmatics' Studies Software. The normalized averages (fold change over untreated) of 3 replicate wells for each compound concentration were used to create dose-responses curves and EC50 values were calculated using non-linear regression curve fit in the Dotmatics' Studies Software. The EC50 values are reported.

For test [2], the system named is Wnt activity (SW480 colon carcinoma cells stably expressing the Sp5-Luc reporter gene). In words: Sp5-Luc reporter gene screening assay for Wnt activity. The class given is cell-based. Conditions: Homo sapiens. A digest of the protocol:
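The SW480 cells carry a lentiviral luciferase reporter driven by a Sp5 promoter with eight TCF/LEF sites. They were plated at 10,000 cells/well in 10% FCS overnight, then pinned with 50 nl of 3-fold dilutions (10 mM top source concentration) into 50 μl.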

Structures are written as SMILES.

On to `Oc1cncc(-c2cnc3[nH]nc(-c4nc5c(-c6cccc(F)c6)ccnc5[nH]4)c3c2)c1` [Compound 921, 5-(3-(7-(3-Fluorophenyl)-3H-imidazo[4,5-b]pyridin-2-yl)-1H-pyrazolo[3,4-b]pyridin-5-yl)pyridin-3-ol], for which the EC50 in test [1] was determined as 164 nM. Besides, in test [2], the IC50 was 27 nM.

Regarding `Fc1cccc(-c2ccnc3[nH]c(-c4n[nH]c5ncc(-c6cncc(OC7CCNCC7)c6)cc45)nc23)c1` [Compound 916, 3-(7-(3-Fluorophenyl)-3H-imidazo[4,5-b]pyridin-2-yl)-5-(5-(piperidin-4-yloxy)pyridin-3-yl)-1H-pyrazolo[3,4-b]pyridine], the half-maximal effective concentration (EC50) in test [1] was not above 9 nM. In test [2], this compound showed an IC50 of more than 10000 nM.

Consider `Fc1ccc(-c2ccnc3[nH]c(-c4n[nH]c5ncc(-c6cncc(CN7CCCC7)c6)cc45)nc23)cc1` [Compound 33, 3-(7-(4-Fluorophenyl)-3H-imidazo[4,5-b]pyridin-2-yl)-5-(5-(pyrrolidin-1-ylmethyl)pyridin-3-yl)-1H-pyrazolo[3,4-b]pyridine], for which the EC50 in test [1] amounted to 7800 nM. Besides, half-maximal inhibition in test [2] (IC50) was put at 144 nM.

With `Cc1ccc(-c2ccnc3[nH]c(-c4n[nH]c5ncc(-c6cncc(NC(=O)C7CCCC7)c6)cc45)nc23)s1` [Compound 357, N-(5-(3-(7-(5-Methylthiophen-2-yl)-3H-imidazo[4,5-b]pyridin-2-yl)-1H-pyrazolo[3,4-b]pyridin-5-yl)pyridin-3-yl)cyclopentanecarboxamide], in test [1], the EC50 worked out at 1390 nM. This compound also gave an IC50 in test [2] of 8 nM.

`CCCC(=O)Nc1cncc(-c2cnc3[nH]nc(-c4nc5c(-c6ccncc6)ccnc5[nH]4)c3c2)c1` [Compound 102, N-(5-(3-(7-(Pyridin-4-yl)-3H-imidazo[4,5-b]pyridin-2-yl)-1H-pyrazolo[3,4-b]pyridin-5-yl)pyridin-3-yl)butyramide]: in test [1], the EC50 is not below 9990 nM. This compound displayed an IC50 in test [2] of 2380 nM.

For `O=C(Nc1cncc(-c2cnc3[nH]nc(-c4nc5c(-c6ccsc6)ccnc5[nH]4)c3c2)c1)c1ccccc1` [Compound 243, N-(5-(3-(7-(Thiophen-3-yl)-3H-imidazo[4,5-b]pyridin-2-yl)-1H-pyrazolo[3,4-b]pyridin-5-yl)pyridin-3-yl)benzamide], the EC50 in test [1] amounted to 113 nM. This compound also returned an IC50 in test [2] of 33 nM.

For `c1cncc(-c2cnc3[nH]nc(-c4nc5cccnc5[nH]4)c3c2)c1` [Compound 212, 3-(3H-Imidazo[4,5-b]pyridin-2-yl)-5-(pyridin-3-yl)-1H-pyrazolo[3,4-b]pyridine], in test [1], the EC50 was 501 nM. In addition, in test [2], the IC50 is 214 nM.

Consider `O=C(Nc1cncc(-c2cnc3[nH]nc(-c4nc5c(-c6cccs6)ccnc5[nH]4)c3c2)c1)C1CC1` [Compound 303, N-(5-(3-(7-(Thiophen-2-yl)-3H-imidazo[4,5-b]pyridin-2-yl)-1H-pyrazolo[3,4-b]pyridin-5-yl)pyridin-3-yl)cyclopropanecarboxamide], for which the EC50 in test [1] was not below 9990 nM. For the same compound, the IC50 in test [2] worked out at 7.7 nM.

In the case of `CS(=O)(=O)NCc1cc(F)cc(-c2ccnc3[nH]c(-c4n[nH]c5ncc(-c6cncnc6)cc45)nc23)c1` [Compound 414, N-(3-Fluoro-5-(2-(5-(pyrimidin-5-yl)-1H-pyrazolo[3,4-b]pyridin-3-yl)-3H-imidazo[4,5-b]pyridin-7-yl)benzyl)methanesulfonamide], the EC50 in test [1] is not below 9990 nM. The IC50 in test [2] was more than 10000 nM.

Consider `CN(C)c1cncc(-c2cnc3[nH]nc(-c4nc5c(N6CCCCC6)ccnc5[nH]4)c3c2)c1` [Compound 139, N,N-Dimethyl-5-(3-(7-(piperidin-1-yl)-3H-imidazo[4,5-b]pyridin-2-yl)-1H-pyrazolo[3,4-b]pyridin-5-yl)pyridin-3-amine], for which the EC50 in test [1] was not below 9990 nM. The compound further had an IC50 in test [2] of 384 nM.

As for `c1ccc(-c2ccnc3[nH]c(-c4n[nH]c5ncc(-c6cncc(CNCC7CCCC7)c6)cc45)nc23)nc1` [Compound 130, 1-Cyclopentyl-N-((5-(3-(7-(pyridin-2-yl)-3H-imidazo[4,5-b]pyridin-2-yl)-1H-pyrazolo[3,4-b]pyridin-5-yl)pyridin-3-yl)methyl)methanamine], in test [1], the EC50 was not above 9 nM. Further, in test [2], the IC50 was determined as 633 nM.

These data come from US10526347B2, “3-(3H-imidazo[4,5-B]pyridin-2-yl)-1H-pyrazolo[3,4-B]pyridine and therapeutic uses thereof” (Samumed, LLC, priority 2014, dated 2020).
